Assay results taken from patent publication US12275731B2, “Azaindole inhibitors of wild-type and mutant forms of LRRK2” (DANA-FARBER CANCER INSTITUTE, INC., priority 2018, dated 2025).

Assays:
Experiment in all cases: KinomeScan profiling
Assay type in all cases: binding
[1] = molecular target: T1, JNK3 (Homo sapiens, UniProt P53779); details: JNK3, 1 μM; read-out: % control
T1 construct: purchased KinomeScan®
How it was run: (§1)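 Single-point competition binding screen: 1 μM, DMSO, 468 kinases. Results reported as % control from RLU, normalised to DMSO and positive-control wells. Activity threshold: <35% control.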

[2] = molecular target: T2, GAK (Homo sapiens, UniProt O14976); details: read-out: % control
T2 sequence (O14976 1-1311): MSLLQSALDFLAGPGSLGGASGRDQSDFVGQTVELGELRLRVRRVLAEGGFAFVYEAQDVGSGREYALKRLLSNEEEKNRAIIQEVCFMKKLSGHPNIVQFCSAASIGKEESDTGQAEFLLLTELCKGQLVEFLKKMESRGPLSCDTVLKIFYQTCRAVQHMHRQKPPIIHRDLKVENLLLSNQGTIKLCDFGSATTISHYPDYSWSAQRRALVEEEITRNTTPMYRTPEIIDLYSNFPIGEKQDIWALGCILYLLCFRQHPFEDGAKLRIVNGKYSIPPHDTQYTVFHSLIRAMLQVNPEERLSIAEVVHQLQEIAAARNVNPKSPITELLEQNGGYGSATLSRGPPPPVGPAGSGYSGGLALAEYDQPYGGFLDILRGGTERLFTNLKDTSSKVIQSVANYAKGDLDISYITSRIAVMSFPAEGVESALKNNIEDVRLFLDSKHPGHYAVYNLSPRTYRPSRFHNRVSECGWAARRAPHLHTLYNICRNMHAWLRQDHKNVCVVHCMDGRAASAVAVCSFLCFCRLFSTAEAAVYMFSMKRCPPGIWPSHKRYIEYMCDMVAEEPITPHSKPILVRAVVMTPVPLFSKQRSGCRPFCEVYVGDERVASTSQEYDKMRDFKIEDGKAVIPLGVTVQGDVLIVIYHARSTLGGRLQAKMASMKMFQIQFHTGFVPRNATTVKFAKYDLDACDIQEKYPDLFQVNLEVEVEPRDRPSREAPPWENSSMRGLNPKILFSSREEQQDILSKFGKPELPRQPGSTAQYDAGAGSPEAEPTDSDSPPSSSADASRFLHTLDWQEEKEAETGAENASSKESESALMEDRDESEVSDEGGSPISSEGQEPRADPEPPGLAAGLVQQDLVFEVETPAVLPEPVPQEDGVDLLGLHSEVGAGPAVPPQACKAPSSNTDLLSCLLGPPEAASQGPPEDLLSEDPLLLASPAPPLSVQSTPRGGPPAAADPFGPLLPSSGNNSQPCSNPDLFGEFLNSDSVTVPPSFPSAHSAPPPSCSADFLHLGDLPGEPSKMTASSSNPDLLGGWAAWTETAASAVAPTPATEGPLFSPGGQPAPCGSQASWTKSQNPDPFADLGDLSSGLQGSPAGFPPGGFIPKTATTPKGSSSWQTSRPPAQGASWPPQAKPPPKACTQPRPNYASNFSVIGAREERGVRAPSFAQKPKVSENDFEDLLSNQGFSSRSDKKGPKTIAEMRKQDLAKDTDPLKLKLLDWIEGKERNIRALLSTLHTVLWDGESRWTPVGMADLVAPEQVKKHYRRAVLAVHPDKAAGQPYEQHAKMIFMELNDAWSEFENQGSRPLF
How it was run: as §1

[3] = molecular target: T3, TLK1 (Homo sapiens, UniProt Q9UKI8); details: TLK1, 1 μM; read-out: % control
T3 sequence (Q9UKI8 1-766): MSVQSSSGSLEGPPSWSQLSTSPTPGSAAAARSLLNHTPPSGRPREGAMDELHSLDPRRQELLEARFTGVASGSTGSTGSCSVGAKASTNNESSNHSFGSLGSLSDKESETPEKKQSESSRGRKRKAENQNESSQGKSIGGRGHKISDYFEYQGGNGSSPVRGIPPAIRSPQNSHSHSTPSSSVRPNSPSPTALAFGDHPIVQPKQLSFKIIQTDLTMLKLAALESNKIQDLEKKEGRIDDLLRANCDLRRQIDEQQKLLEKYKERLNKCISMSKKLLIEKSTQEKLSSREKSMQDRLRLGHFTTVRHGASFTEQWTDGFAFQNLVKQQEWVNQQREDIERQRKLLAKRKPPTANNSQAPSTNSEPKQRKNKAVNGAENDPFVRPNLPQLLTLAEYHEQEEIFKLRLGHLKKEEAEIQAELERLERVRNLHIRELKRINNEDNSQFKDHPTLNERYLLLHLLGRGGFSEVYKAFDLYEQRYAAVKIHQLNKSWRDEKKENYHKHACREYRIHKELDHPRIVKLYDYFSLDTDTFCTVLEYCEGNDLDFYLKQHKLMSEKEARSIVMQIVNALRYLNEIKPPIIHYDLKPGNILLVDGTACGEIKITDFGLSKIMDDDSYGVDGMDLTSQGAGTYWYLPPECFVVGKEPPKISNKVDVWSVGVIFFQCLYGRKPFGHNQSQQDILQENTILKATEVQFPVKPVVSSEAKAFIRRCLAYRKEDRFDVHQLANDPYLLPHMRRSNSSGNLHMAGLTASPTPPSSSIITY
How it was run: as §1

T1 sequence (P53779 whole entry): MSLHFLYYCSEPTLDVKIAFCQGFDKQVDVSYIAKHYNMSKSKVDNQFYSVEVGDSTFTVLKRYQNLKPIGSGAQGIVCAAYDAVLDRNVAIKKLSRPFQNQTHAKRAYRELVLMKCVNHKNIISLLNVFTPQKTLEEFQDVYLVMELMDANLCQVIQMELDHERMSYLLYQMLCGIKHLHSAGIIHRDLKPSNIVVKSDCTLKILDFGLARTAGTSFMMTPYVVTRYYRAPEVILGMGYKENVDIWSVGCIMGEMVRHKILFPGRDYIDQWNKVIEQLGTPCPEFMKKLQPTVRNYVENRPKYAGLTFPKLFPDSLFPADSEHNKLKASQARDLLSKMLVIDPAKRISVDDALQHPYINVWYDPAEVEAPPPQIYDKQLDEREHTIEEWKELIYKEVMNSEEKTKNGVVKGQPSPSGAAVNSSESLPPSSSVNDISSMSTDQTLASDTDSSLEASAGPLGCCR

In the case of O=C(c1ccc(-c2cnc3[nH]cc(Cl)c3c2NC2CCCC2)cc1)N1CCC(N2CCOCC2)CC1 [Compound 101, (4-(3-chloro-4-(cyclopentylamino)-1H-pyrrolo[2,3-b]pyridin-5-yl)phenyl)(4-morpholinopiperidin-1-yl)methanone], the remaining binding at 1 µM [1] is reported as 7.6%, the remaining binding at 1 µM [2] is reported as 99% and the remaining binding at 1 µM [3] is reported as 90%.

CNc1c(-c2cnn([C@H]3CCN(C(C)=O)C[C@@H]3F)c2)cnc2[nH]cc(Cl)c12 [Compound 77, 1-((3S,4S)-4-(4-(3-chloro-4-(methylamino)-1H-pyrrolo[2,3-b]pyridin-5-yl)-1H-pyrazol-1-yl)-3-fluoropiperidin-1-yl)ethan-1-one] showed a remaining binding at 1 µM [1] of 1.9%, a remaining binding at 1 µM [2] of 100% and a remaining binding at 1 µM [3] of 95%.

Work on CNc1c(-c2ccc(C(=O)N3CCC(N4CCOCC4)CC3)cc2)cnc2[nH]cc(Cl)c12 [Compound 96, (4-(3-chloro-4-(methylamino)-1H-pyrrolo[2,3-b]pyridin-5-yl)phenyl)(4-morpholinopiperidin-1-yl)methanone] yielded a remaining binding at 1 µM [1] of 0.35%, a remaining binding at 1 µM [2] of 99% and a remaining binding at 1 µM [3] of 95%.
